One series concerns the target T1, TRPV1 receptor (Rattus norvegicus, UniProt O35433).
T1 construct: The neurons of the DRG naturally express the TRPV1 receptor; endogenous in cells; host or cells: primary culture of newborn rat dorsal root ganglion (DRG) neurons
The series can be described thus: Inhibition of the current induced by capsaicin in rat DRG cells (whole-cell patch clamp). Type of series: cell-based. The conditions noted are these: DRG neuron; compound at 10 nM; capsaicin (1 μM) response; primary culture of newborn rat DRG neurons; read-out: % Inhibition by the DRG patch technique. Here is the method:
Test of the Inhibition of the Current Induced by Capsaicin with Regard to Rat DRGs
Primary Culture of Rat Dorsal Root Ganglion (DRG) Cells:
The neurons of the DRG naturally express the TRPV1 receptor.
Primary cultures of DRGs of newborn rats are prepared from 1-day-old rats. Briefly, after dissection, the ganglions are trypsinized and their cells dissociated mechanically by gentle trituration. […]
The measurement chambers (volume 800 μl) comprising the cell preparation are placed on the stage of an inverted microscope (Olympus IMT2) equipped with Hoffman optics (Modulation Contrast, New York) and are observed at a magnification of 400×. […] The overall currents (membrane potential set at −60 mV) are recorded with an Axopatch 1D amplifier (Axon Instruments, Foster City, Calif.) connected to a PC controlled by Pclamp8 software (Axon Instruments). The current plots are recorded on paper and simultaneously recorded digitally (sampling frequency 15 to 25 Hz) and acquired on the hard disk of the PC.
The application of a micromolar capsaicin solution produces an incoming cationic current with regard to the DRG cells (voltage set at −70 mV). […] The results are expressed as % of inhibition of the control capsaicin response.
T1 sequence (O35433 whole entry): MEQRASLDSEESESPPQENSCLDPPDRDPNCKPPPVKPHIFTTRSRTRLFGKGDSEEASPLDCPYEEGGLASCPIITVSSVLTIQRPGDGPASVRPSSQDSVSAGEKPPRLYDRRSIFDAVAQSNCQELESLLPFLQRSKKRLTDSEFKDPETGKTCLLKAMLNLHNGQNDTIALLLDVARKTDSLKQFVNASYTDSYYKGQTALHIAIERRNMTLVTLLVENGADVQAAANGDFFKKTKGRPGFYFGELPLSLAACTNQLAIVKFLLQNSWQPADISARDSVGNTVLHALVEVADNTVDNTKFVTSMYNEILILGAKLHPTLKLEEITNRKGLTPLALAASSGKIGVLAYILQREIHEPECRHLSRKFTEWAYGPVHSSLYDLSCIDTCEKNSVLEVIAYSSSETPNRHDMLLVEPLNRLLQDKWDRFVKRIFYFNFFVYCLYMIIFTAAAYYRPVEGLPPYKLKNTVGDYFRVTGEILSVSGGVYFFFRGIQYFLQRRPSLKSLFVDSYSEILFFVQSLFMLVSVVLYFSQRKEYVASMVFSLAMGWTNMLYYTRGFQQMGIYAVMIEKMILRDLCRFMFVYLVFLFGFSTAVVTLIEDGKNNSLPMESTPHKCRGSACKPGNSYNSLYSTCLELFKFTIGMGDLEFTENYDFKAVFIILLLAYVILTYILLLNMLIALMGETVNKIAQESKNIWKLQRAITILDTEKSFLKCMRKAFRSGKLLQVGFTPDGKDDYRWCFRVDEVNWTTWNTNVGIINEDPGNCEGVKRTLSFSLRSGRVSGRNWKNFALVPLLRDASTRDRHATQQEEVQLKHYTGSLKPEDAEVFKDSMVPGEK
Consider `Cc1cc(C)nc(-n2c(C(=O)Nc3ccc4c(c3)nc(C)n4C)cc3cc(F)ccc32)c1` [Compound No. 10, N-(1,2-Dimethyl-1H-benzimidazol-5-yl)-5-fluoro-1-(4,6-dimethylpyridin-2-yl)-1H-indole-2-carboxamide], for which the inhibition at 0.01 µM is 70%.

System in a further series: not given
Experiment: not given
Conditions: not given
The molecule `Cn1ccc2cc(NC(=O)c3cc4cc(F)ccc4n3-c3cccnc3)ccc21` [Compound No. 2, N-(1-methyl-1H-indol-5-yl)-5-fluoro-1-(pyridin-3-yl)-1H-indole-2-carboxamide] had a melting point of 203 to 205 °C.

For `Cn1ccc2cc(NC(=O)c3cc4cc(F)ccc4n3-c3ccccn3)ccc21` [Compound No. 3, N-(1-Methyl-1H-indol-5-yl)-5-fluoro-1-(pyridin-2-yl)-1H-indole-2-carboxamide], the melting point was 210 to 211 °C.

`Cc1nc2cc(NC(=O)c3cc4cc(F)ccc4n3-c3ccncc3)ccc2n1C` [Compound No. 4, N-(1,2-Dimethyl-1H-benzimidazol-5-yl)-5-fluoro-1-(pyridin-4-yl)-1H-indole-2-carboxamide] came in with a melting point of 226 to 229 °C.

In turn, `Cc1nc2cc(NC(=O)c3cc4cc(F)ccc4n3-c3ccccn3)ccc2n1C` [Compound No. 5, N-(1,2-Dimethyl-1H-benzimidazol-5-yl)-5-fluoro-1-(pyridin-2-yl)-1H-indole-2-carboxamide] gave a melting point of 260 to 261 °C.

On to `Cc1nc2cc(NC(=O)c3cc4cc(F)ccc4n3-c3cccnc3)ccc2n1C` [Compound No. 6, N-(1,2-Dimethyl-1H-benzimidazol-5-yl)-5-fluoro-1-(pyridin-3-yl)-1H-indole-2-carboxamide], for which the melting point was 139 to 141 °C.

On to `Cc1ccnc(-n2c(C(=O)Nc3ccc4c(ccn4C)c3)cc3cc(F)ccc32)c1` [Compound No. 7, N-(1-methyl-1H-indol-5-yl)-5-fluoro-1-(4-methylpyridin-2-yl)-1H-indole-2-carboxamide], for which the melting point fell in the range of 276 to 279 °C.

`Cc1ccnc(-n2c(C(=O)Nc3ccc4c(c3)nc(C)n4C)cc3cc(F)ccc32)c1` [Compound No. 8, N-(1,2-Dimethyl-1H-benzimidazol-5-yl)-5-fluoro-1-(4-methylpyridin-2-yl)-1H-indole-2-carboxamide]: the melting point was in the range of 270 to 278 °C.

`Cc1cc(-n2c(C(=O)Nc3ccc4c(ccn4C)c3)cc3cc(F)ccc32)ccn1` [Compound No. 9, N-(1-Methyl-1H-indol-5-yl)-5-fluoro-1-(2-methylpyridin-4-yl)-1H-indole-2-carboxamide]: the melting point lay within 213 to 216 °C.

Regarding `Cc1cc(C)nc(-n2c(C(=O)Nc3ccc4c(ccn4C)c3)cc3cc(F)ccc32)c1` [Compound No. 11, N-(1-Methyl-1H-indol-5-yl)-5-fluoro-1-(4,6-dimethylpyridin-2-yl)-1H-indole-2-carboxamide], the melting point lay in the range of 198 to 199 °C.

Source of the values: patent US7868024B2, “Derivatives of N-(heteroaryl)-1-heteroaryl-1H-indole-2-carboxamides, preparation thereof and therapeutic use thereof” (Sanofi-Aventis, priority 2007, dated 2011).
